Test results reported in ChEMBL document CHEMBL1201862, “PubChem BioAssay data set” (2004).
Activity calls are given as the source filed them.

Key:
Assay type in all cases: functional
[1] = viability of uninfected HEp-2 cells – cell-based, HTS, cytotoxicity control for RSV inhibitor project, dose response (AID 2410); settings: human respiratory syncytial virus
[2] = target: T1, Corticotropin-releasing factor receptor 2/Corticotropin-releasing factor-binding protein (Homo sapiens, UniProt P24387+Q13324); assay: activators of CRF receptor 2 with binding protein – uHTS hits, confirmation (AID 602473); settings: read-out: EC50_Mean
T1 sequence (Q13324 whole entry): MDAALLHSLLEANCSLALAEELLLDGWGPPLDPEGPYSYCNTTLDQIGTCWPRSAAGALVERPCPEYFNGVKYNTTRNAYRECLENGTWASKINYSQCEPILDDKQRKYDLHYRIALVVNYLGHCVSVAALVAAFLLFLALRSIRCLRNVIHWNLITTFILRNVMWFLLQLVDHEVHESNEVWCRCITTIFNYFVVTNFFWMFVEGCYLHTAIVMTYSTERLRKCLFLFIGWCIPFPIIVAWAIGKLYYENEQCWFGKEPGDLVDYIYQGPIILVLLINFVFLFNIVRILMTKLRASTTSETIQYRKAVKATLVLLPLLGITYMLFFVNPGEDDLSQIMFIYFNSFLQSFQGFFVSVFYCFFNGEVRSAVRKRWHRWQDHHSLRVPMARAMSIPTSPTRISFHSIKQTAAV
T1 sequence (P24387 whole entry): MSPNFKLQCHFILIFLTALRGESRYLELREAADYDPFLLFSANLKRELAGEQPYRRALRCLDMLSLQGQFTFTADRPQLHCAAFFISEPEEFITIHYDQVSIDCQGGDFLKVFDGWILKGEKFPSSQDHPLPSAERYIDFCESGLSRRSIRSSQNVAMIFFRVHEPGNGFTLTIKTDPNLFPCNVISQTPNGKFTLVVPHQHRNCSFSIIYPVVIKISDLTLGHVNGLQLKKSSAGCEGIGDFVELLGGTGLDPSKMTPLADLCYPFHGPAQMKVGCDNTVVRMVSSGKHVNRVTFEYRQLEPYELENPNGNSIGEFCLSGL

[3] = target: T1, Corticotropin-releasing factor receptor 2/Corticotropin-releasing factor-binding protein; assay: Dose Response confirmation of uHTS hits for small molecule antagonists of the CRF-binding protein and CRF-R2 receptor complex.; settings: read-out: IC50_Mean
[4] = target: T2, Replicative DNA helicase DnaB (Mycobacterium tuberculosis, UniProt P9WMR3); assay: DnaB intein splicing inhibitors, dose response, biochemical, cell-free fluorescence (AID 449749)
T2 sequence (P9WMR3 whole entry): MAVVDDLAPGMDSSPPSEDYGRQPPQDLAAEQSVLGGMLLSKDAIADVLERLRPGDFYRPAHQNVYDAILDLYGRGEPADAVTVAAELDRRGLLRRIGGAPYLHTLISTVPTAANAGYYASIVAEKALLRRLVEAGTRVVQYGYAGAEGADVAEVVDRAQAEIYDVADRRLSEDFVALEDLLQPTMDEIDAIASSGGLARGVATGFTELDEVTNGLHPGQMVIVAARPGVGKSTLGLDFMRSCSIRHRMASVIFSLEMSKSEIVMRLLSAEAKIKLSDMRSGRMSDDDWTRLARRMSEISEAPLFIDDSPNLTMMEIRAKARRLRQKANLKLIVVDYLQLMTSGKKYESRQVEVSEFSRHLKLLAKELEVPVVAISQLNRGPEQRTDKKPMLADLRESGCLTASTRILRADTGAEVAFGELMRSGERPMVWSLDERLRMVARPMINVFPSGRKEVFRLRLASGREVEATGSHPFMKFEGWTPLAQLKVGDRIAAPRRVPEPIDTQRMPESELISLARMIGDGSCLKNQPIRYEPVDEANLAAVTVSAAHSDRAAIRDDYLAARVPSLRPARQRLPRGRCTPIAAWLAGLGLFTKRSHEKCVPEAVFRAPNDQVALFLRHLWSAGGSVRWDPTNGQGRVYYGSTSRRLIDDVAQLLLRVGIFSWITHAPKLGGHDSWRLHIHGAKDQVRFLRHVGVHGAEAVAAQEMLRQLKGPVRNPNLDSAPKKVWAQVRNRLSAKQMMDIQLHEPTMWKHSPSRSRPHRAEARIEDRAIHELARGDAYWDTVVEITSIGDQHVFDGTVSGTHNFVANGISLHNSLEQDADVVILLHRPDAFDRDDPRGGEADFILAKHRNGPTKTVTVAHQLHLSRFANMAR

Protein RecA = target: T3, Protein RecA (Mycobacterium tuberculosis, UniProt P9WHJ3); assay: Fluorescence Cell-Free Homogeneous Dose Retest to Identify Inhibitors of RecA-Intein Splicing Activity. [Related pubchem assays (depositor defined):AID2097, AID2223, AID489010, AID492950]
T3 sequence (P9WHJ3 whole entry): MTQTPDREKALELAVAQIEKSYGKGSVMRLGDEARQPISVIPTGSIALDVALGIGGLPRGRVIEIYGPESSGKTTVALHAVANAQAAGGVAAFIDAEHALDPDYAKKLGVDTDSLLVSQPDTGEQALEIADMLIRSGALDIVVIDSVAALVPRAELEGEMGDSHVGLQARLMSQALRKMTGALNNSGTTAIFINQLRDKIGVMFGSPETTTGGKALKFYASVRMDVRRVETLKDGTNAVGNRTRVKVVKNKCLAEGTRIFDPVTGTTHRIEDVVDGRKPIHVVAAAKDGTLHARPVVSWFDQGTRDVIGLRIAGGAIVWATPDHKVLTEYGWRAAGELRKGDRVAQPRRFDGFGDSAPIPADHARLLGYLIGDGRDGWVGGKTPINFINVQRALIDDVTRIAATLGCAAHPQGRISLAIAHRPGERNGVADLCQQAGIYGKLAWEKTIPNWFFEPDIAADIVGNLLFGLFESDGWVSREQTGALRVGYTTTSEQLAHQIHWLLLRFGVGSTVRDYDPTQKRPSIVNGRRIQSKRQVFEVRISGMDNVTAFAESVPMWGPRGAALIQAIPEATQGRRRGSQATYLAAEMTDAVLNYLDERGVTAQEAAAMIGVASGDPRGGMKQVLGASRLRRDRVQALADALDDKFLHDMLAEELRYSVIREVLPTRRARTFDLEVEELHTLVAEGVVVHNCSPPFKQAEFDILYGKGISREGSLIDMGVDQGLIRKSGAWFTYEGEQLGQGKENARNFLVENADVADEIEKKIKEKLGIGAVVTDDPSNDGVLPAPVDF

Row | Structure (SMILES) | EC50 [2] | IC50 [3] | further results
1 | CCCC(=O)Nc1ccc2c(c1)Cc1ccccc1-2 | – | – | CC50 [1]: > 50 µM (active)
2 | C/C(=N\NC1=NC(=O)C(CC(=O)Nc2ccc(C)c(Cl)c2)S1)C(C)(C)C (stereo not drawn) | – | – | CC50 [1]: 13.8 µM (active)
3 | CCC(=O)Nc1cccc(-c2csc(-c3ccccc3)n2)c1 | – | – | CC50 [1]: 26.4 µM (active)
4 | CCn1cc(C(=O)NCCCN(CC(C)C)CC(C)C)c(=O)c2cc(S(=O)(=O)N(C)C3CCCCC3)ccc21 | 7.06 µM (active) | – | –
5 | Cc1ccc2c(cnn2C(=O)CCC(=O)N2CCCCC2)c1 | > 53 µM (inactive) | > 47.1 µM (inactive) | –
6 | CSc1ccccc1C(=O)N1CCN(S(=O)(=O)c2sc(C(=O)O)c(C)c2C(=O)O)CC1 | > 53 µM (inactive) | > 47.1 µM (inactive) | –
7 | CN(CCc1cnn(C)c1)C(=O)C1CCC(=O)N(CC2CCCCC2)C1 (stereo not drawn) | – | – | AC50 [4]: > 380 µM (inactive); EC50 (Protein RecA): > 380 µM (inactive)
8 | Nc1nonc1-n1nnc(C(=O)N/N=C/c2ccccc2)c1CSc1ccc(Cl)cc1 | > 53 µM (inactive) | – | –
9 | CSc1ccccc1NC(=O)COC(=O)c1c[nH]c(=O)[nH]c1=O | > 53 µM (inactive) | – | –
10 | O=C1C([O-])=C([n+]2ccccc2)C(=O)c2ccccc21 | – | – | AC50 [4]: 2.79 µM (active); EC50 (Protein RecA): 3.52 µM (active)
11 | O=C(COc1cccc(Cl)c1)Nc1ccc(N2CCOCC2)cc1 | > 53 µM (inactive) | > 47.1 µM (inactive) | –
12 | CC(=O)c1cc(F)c(N2CCN(C(=O)C(C)(C)C)CC2)cc1C | > 53 µM (inactive) | > 47.1 µM (inactive) | –
13 | CC(C)Cc1ccc(-c2cc(O)[nH]n2)cc1 | – | – | AC50 [4]: 1.79 µM (active); EC50 (Protein RecA): 0.664 µM (active)
14 | COc1ccc(N(CC(=O)N/N=C/c2ccc3c(c2)OCO3)S(=O)(=O)c2ccc(NC(C)=O)cc2)cc1 | > 53 µM (inactive) | > 47.1 µM (inactive) | –
15 | CCOc1ccc(C2C(C#N)=C(N)Oc3[nH]nc(C)c32)cc1OC(=O)C1CC1 (stereo not drawn) | – | – | AC50 [4]: 17.7 µM (active); EC50 (Protein RecA): 9.82 µM (active)
16 | CS/C(=C\[N+](=O)[O-])Nc1ccc(OC(F)(F)F)cc1 | – | – | AC50 [4]: 14.6 µM (active); EC50 (Protein RecA): 7.21 µM (active)
17 | Cc1onc(-c2ccccc2)c1CNC(=O)CN1C(=O)c2ccccc2C1=O | > 53 µM (inactive) | > 47.1 µM (inactive) | –
18 | Cc1c(C(=O)Nc2cccc([N+](=O)[O-])c2)sc2ncn(CC(=O)N3CCOCC3)c(=O)c12 | > 53 µM (inactive) | > 47.1 µM (inactive) | –
19 | COc1ccccc1NS(=O)(=O)c1cc(C(=O)N2CCCC2)ccc1F | > 53 µM (inactive) | > 47.1 µM (inactive) | –
20 | Cc1cc(O)c(C(C)C)cc1/N=C\c1ccccc1O | – | – | AC50 [4]: 4.29 µM (active); EC50 (Protein RecA): 8.89 µM (active)

Row | Structure (SMILES) | EC50 [2] | IC50 [3] | further results
21 | COCCN1CCC(CO)C1 (stereo not drawn) | > 53 µM (inactive) | > 47.1 µM (inactive) | –
22 | O=C(CCN1CCCC1=O)NC1CCCc2c1cnn2-c1ccccc1F (stereo not drawn) | > 53 µM (inactive) | > 47.1 µM (inactive) | –
23 | Cc1cc(=O)n(-c2ccc(C(=O)O)cc2)[nH]1 | – | – | AC50 [4]: 1.9 µM (active); EC50 (Protein RecA): 1.92 µM (active)
24 | Cc1cc2c3c(c1)C(C)CC(C)(C)N3C(=O)C2=C(C#N)C#N (stereo not drawn) | – | – | AC50 [4]: 23.8 µM (active); EC50 (Protein RecA): 2.22 µM (active)
25 | CC(C)(CSc1ncccn1)NS(=O)(=O)c1ccccc1 | > 53 µM (inactive) | > 47.1 µM (inactive) | –
26 | Cc1c(C(c2ccc(N(C)C)cc2)c2c(C)n(C)n(-c3ccccc3)c2=O)c(=O)n(-c2ccccc2)n1C | > 53 µM (inactive) | > 47.1 µM (inactive) | –
27 | CC12CC3CC(C)(C1)CC(C(=O)NNC(=O)c1ccncc1)(C3)C2 | > 53 µM (inactive) | > 47.1 µM (inactive) | –
28 | CCOc1cc2[nH]c(=O)n(Cc3ccccc3)c(=O)c2cc1OCC | > 53 µM (inactive) | > 47.1 µM (inactive) | –
29 | COc1ccc(-c2csc(NC(=O)CS(=O)(=O)c3ccccc3)n2)cc1 | – | – | CC50 [1]: 20.4 µM (active)
30 | Nc1ccccc1SC1CC(=O)N(c2ccc3c(c2)OCO3)C1=O (stereo not drawn) | > 53 µM (inactive) | > 47.1 µM (inactive) | –
31 | COC(=O)C(C)N(C(=O)c1cccc2ccccc12)c1c(C)cccc1C (stereo not drawn) | – | – | CC50 [1]: 19.9 µM (active)
32 | CCN1N=C(c2cc(Cl)sc2Cl)CSC1=O | – | – | CC50 [1]: > 50 µM (active)
33 | N#C/C(=C\c1cccc(O)c1)c1nc2ccccc2o1 | – | – | AC50 [4]: 53.1 µM (active); EC50 (Protein RecA): 9.27 µM (active)
34 | CCn1c(SCC(=O)N2CCN(c3cccc(Cl)c3)CC2)nc2ccccc2c1=O | – | – | CC50 [1]: 47.5 µM (active)
35 | CC1=C(C#N)C(=O)NC(C)(C)C1 | > 53 µM (inactive) | > 47.1 µM (inactive) | –
36 | O=C(CCl)N(c1ccccc1)c1ccccc1 | – | – | AC50 [4]: 17.1 µM (active); EC50 (Protein RecA): 0.484 µM (active)
37 | Cc1occc1C(=O)N/N=C/C(Br)=C/c1ccccc1 | – | – | CC50 [1]: 32 µM (active)
38 | Cc1cc(/C=C(/C#N)c2nc3ccccc3[nH]2)c(C)n1-c1cccc([N+](=O)[O-])c1 | – | – | CC50 [1]: 22.6 µM (active)
39 | Cc1cc(C)cc(NC(=O)c2ccc(N3C(=O)C4CCCCC4C3=O)cc2)c1 (stereo not drawn) | > 53 µM (inactive) | > 47.1 µM (inactive) | –
40 | O=C1C(Cl)=C(NCC2CCCO2)C(=O)N1c1ccccc1 (stereo not drawn) | – | – | AC50 [4]: 18.8 µM (active); EC50 (Protein RecA): 6.58 µM (active)
